The target in experiment [1] is N-type calcium channel (α1B (Cav2.2), β3 and α2δ subunits) (Homo sapiens, UniProt Q00975). Nature of the experiment: Functional Assay: Antagonism of N-Type Calcium Channel (FDSS calcium mobilization, KCl depolarization). The experiment is classed as cell-based. To be noted: for IC50: HEK cell line, 50 mM KCl depolarization, six-point concentration-response, read-out: FDSS IC50. Put shortly:
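HEK cells stably co-expressing α1B (Cav2.2), β3 and α2δ were loaded with calcium dye, then given compound with fluorescence recorded for 5 min before 50 mM KCl depolarisation and 3 min more reading. IC50 came from six-point curves of maximal fluorescence, normalised to KCl maximum and buffer minimum.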
In general terms: A change in cytosolic calcium serves as a functional read-out for many receptors and channels.

The target in another experiment is N-type calcium channel (Homo sapiens, UniProt Q00975). The experiment in a line: Automated Electrophysiology Assay (QPatch-HT whole-cell patch clamp; low- and high-frequency stimulation). In kind it is cell-based.
Chain of N-type calcium channel (Q00975 whole entry): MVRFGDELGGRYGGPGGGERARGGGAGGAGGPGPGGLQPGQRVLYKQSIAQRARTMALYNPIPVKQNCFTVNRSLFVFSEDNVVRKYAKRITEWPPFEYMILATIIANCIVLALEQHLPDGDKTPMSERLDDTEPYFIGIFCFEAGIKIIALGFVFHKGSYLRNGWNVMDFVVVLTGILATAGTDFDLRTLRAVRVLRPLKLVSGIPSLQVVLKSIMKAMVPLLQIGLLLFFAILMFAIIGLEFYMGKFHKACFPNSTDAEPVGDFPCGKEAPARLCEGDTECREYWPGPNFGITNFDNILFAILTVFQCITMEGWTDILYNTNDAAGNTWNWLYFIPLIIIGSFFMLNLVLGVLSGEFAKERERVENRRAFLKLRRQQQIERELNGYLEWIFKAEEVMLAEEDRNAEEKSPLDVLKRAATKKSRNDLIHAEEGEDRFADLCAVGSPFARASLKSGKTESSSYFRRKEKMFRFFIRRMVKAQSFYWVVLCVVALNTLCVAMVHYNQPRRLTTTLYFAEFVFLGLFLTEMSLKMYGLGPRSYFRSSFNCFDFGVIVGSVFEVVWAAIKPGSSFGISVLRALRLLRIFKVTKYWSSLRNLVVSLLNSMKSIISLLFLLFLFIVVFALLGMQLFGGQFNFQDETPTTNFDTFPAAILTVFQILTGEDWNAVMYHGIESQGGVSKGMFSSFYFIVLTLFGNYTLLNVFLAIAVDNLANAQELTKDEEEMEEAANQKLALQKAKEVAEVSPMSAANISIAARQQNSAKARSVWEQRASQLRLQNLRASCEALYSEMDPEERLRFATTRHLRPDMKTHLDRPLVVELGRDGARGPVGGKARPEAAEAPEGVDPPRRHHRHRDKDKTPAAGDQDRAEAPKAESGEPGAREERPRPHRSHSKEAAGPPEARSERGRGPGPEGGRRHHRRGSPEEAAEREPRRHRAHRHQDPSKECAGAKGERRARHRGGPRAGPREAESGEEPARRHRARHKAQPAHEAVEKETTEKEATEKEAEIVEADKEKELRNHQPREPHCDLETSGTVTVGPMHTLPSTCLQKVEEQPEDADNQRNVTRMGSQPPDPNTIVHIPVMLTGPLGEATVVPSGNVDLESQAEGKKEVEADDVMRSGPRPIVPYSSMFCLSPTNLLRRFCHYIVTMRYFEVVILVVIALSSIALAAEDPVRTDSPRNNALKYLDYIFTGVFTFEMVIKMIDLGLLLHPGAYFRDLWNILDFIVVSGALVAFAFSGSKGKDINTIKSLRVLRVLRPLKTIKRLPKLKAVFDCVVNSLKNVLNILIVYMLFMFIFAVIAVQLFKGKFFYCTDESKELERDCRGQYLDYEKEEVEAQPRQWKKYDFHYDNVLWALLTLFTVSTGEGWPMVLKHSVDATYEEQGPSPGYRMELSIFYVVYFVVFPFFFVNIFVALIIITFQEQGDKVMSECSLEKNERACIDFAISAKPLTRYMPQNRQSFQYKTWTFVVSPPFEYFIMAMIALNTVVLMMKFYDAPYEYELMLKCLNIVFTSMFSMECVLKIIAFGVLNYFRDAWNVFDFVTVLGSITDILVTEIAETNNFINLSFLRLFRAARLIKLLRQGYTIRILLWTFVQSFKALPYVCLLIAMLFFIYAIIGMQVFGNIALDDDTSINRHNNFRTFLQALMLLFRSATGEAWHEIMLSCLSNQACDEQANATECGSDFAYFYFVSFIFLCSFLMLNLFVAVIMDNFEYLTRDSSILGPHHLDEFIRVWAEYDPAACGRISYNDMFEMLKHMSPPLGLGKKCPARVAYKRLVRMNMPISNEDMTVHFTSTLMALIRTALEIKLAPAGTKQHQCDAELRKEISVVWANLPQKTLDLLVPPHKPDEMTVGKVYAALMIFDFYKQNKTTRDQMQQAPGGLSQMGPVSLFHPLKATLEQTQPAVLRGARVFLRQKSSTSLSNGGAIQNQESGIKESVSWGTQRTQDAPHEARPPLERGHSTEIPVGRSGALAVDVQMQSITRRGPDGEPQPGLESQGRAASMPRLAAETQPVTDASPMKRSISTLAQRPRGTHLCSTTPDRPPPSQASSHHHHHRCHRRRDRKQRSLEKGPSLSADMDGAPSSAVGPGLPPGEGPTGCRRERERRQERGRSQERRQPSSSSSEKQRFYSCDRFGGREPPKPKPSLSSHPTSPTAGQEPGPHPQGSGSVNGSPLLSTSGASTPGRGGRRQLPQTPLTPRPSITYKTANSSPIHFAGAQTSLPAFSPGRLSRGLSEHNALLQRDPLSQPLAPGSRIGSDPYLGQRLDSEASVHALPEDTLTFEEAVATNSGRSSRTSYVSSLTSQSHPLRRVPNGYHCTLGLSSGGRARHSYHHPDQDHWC
Chain of N-type calcium channel (P54284 whole entry partner): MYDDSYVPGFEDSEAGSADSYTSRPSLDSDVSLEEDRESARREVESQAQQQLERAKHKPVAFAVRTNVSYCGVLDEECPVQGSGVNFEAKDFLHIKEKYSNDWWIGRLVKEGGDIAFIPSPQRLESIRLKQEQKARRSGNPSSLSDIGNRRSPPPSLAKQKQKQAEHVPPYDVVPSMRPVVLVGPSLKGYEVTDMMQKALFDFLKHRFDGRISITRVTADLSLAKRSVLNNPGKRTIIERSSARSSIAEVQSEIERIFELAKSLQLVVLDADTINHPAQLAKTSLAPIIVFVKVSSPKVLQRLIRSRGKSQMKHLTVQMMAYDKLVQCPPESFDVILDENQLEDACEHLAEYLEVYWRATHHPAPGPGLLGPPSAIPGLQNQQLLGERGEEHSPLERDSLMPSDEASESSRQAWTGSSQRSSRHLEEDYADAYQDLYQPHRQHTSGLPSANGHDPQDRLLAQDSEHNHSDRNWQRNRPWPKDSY
Chain of N-type calcium channel (P54289 25-946 partner limits assumed): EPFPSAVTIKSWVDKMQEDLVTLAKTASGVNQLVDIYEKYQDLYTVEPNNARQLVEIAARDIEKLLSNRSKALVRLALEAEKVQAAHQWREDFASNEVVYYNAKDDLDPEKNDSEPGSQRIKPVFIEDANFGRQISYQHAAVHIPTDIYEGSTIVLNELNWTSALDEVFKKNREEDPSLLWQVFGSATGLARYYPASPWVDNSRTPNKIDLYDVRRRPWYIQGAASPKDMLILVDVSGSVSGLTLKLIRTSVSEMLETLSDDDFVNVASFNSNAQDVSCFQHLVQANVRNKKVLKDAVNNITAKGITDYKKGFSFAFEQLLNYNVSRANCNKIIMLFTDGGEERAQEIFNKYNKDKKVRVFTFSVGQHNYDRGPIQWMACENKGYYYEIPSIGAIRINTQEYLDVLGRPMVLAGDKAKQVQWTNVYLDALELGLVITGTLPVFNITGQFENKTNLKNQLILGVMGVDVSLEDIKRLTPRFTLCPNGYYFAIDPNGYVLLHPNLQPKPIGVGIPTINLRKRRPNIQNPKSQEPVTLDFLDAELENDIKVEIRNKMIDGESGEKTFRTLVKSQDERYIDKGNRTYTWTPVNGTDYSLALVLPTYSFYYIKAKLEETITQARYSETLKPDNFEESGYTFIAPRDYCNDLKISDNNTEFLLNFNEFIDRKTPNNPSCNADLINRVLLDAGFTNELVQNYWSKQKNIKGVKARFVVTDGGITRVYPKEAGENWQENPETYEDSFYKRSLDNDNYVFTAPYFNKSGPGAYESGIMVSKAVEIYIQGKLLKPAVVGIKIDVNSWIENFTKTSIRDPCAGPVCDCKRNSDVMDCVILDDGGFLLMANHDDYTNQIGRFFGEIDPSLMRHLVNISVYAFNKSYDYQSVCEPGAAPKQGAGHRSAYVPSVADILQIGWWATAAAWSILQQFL
Chain of N-type calcium channel (P54289 947-1103 partner limits assumed): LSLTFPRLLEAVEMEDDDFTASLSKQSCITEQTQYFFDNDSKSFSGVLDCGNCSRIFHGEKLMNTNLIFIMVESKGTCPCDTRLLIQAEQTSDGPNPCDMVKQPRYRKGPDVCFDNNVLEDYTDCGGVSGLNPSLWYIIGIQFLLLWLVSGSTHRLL
Setting [2] is: 0.1 μM, high-frequency stimulation (15th pulse), read-out: QPatch at High Frequency % Inhibition.
Where [3] appears, read: low frequency, 0.1 μM, read-out: QPatch at Low Frequency % Inhibition.
Where [4] appears, read: high-frequency stimulation (15th pulse), read-out: QPatch at High Frequency % Inhibition.
The mark [5] stands for this setting: low frequency, read-out: QPatch at Low Frequency % Inhibition.

Here are results for 19 compounds from patent US8853418B2, “Cyclopentylpyrazoles as N-type calcium channel blockers” (Janssen Pharmaceutica NV, priority 2012, dated 2014).

Read-outs that look alike come from different tables or passages of the source.

Chain of N-type calcium channel (α1B (Cav2.2), β3 and α2δ subunits) (Q00975 whole entry): as the sequence (Q00975 whole entry) above
Chain of N-type calcium channel (α1B (Cav2.2), β3 and α2δ subunits) (P54284 whole entry partner): as the sequence (P54284 whole entry partner) above
Chain of N-type calcium channel (α1B (Cav2.2), β3 and α2δ subunits) (P54289 25-946 partner limits assumed): as the sequence (P54289 25-946 partner limits assumed) above
Chain of N-type calcium channel (α1B (Cav2.2), β3 and α2δ subunits) (P54289 947-1103 partner limits assumed): as the sequence (P54289 947-1103 partner limits assumed) above

In general, inhibition refers to the change of the read-out against control, counted positive when it falls. Usually IC50 stands for the concentration at which inhibition is half-maximal. Consider `COc1ccccc1-n1nc2c(c1-c1ccc(Cl)cc1)C[C@H](OCC(C)C)C2` [Compound 85, (5S)-3-(4-chlorophenyl)-2-(2-methoxyphenyl)-5-(2-methylpropoxy)-2,4,5,6-tetrahydrocyclopenta[c]pyrazole], for which the inhibition at 0.33 µM in experiment [1] (0.33 μM) worked out at 94%. Moreover, the IC50 in experiment [1] amounted to 23 nM. Moreover, the inhibition at 0.1 µM was 2% at N-type calcium channel (setting [2]) and -5% on N-type calcium channel (setting [3]).
On to `COc1ccc(-c2c3c(nn2-c2ccccc2OC)C[C@H](N(C)S(=O)(=O)N(C)C)C3)cn1` [Compound 56, N-[(5R)-2-(2-Methoxyphenyl)-3-(6-methoxypyridin-3-yl)-2,4,5,6-tetrahydrocyclopenta[c]pyrazol-5-yl]-N,N′,N′-trimethylsulfamide], for which, in experiment [1] (0.33 μM), the inhibition at 0.33 µM amounted to 93%. Moreover, the 50% inhibitory concentration (IC50) in experiment [1] was 13 nM. Besides, the inhibition at 0.1 µM is 2% on N-type calcium channel (setting [2]) and -1% at N-type calcium channel (setting [3]). Besides, the inhibition at 1 µM at N-type calcium channel (setting [4]) was found to be 47%; at N-type calcium channel (setting [5]) it was 32%.
Turning to `COc1ccccc1-n1nc2c(c1-c1ccc(C#N)cc1)CC(CC(C)C)C2` (stereo not shown) [Compound 105, 4-[2-(2-methoxyphenyl)-5-(2-methylpropyl)-2,4,5,6-tetrahydrocyclopenta[c]pyrazol-3-yl]benzonitrile], the inhibition at 0.33 µM in experiment [1] (0.33 μM) came out at 81%. Also, the IC50 in experiment [1] came to 46 nM. Moreover, the inhibition at 0.1 µM on N-type calcium channel (setting [2]) is 20%; at N-type calcium channel (setting [3]), -1%. Further, the inhibition at 1 µM amounted to 40% at N-type calcium channel (setting [4]) and 10% at N-type calcium channel (setting [5]).
Turning to `COc1ccc(-c2c3c(nn2-c2ccccc2OC)CC2(C3)OCC(C)(C)CO2)cn1` [Compound 96, 2-(2-methoxyphenyl)-3-(6-methoxypyridin-3-yl)-5′,5′-dimethyl-2,6-dihydro-4H-spiro[cyclopenta[c]pyrazole-5,2′-[1,3]dioxane]], the inhibition at 0.33 µM in experiment [1] (0.33 μM) was 81%. In addition, in experiment [1], the IC50 came out at 34 nM. Besides, the values for the inhibition at 0.1 µM on N-type calcium channel (setting [2]) and on N-type calcium channel (setting [3]) were 20% and -1%, respectively.
Take `COc1ccccc1-n1nc2c(c1-c1ccc(Cl)cc1)C[C@H](OC(=O)C(C)C)C2` [Compound 81, (5S)-3-(4-chlorophenyl)-2-(2-methoxyphenyl)-2,4,5,6-tetrahydrocyclopenta[c]pyrazol-5-yl 2-methylpropanoate]: the inhibition at 0.33 µM in experiment [1] (0.33 μM) came out at 86%. Besides, the IC50 in experiment [1] was determined as 48 nM. Moreover, the inhibition at 0.1 µM at N-type calcium channel (setting [2]) is 12%; at N-type calcium channel (setting [3]), -4%.
For `COc1ccccc1-n1nc2c(c1-c1ccc(N(C)C)cc1)CC1(C2)OC(C)(C)C(C)(C)O1` [Compound 107, 4-[2-(2-methoxyphenyl)-4′,4′,5′,5′-tetramethyl-2,6-dihydro-4H-spiro[cyclopenta[c]pyrazole-5,2′-[1,3]dioxolan]-3-yl]-N,N-dimethylaniline], the inhibition at 0.33 µM in experiment [1] (0.33 μM) worked out at 92%. Further, in experiment [1], the IC50 stood at 3 nM. Also, the figures for the inhibition at 0.1 µM at N-type calcium channel (setting [2]) and at N-type calcium channel (setting [3]) were 33% and 34%, respectively.
On to `COc1ccccc1-n1nc2c(c1-c1ccc(C#N)cc1)C[C@H](n1cc(C3CCCC3)nn1)C2` [Compound 124, 4-[(5S)-5-(4-cyclopentyl-1H-1,2,3-triazol-1-yl)-2-(2-methoxyphenyl)-2,4,5,6-tetrahydrocyclopenta[c]pyrazol-3-yl]benzonitrile], for which the inhibition at 0.33 µM in experiment [1] (0.33 μM) came out at 88%. Also, in experiment [1], the IC50 is 43 nM. The inhibition at 1 µM at N-type calcium channel (setting [4]) was determined as 73%; at N-type calcium channel (setting [5]), 68%.
With `COc1ccccc1-n1nc2c(c1-c1ccc(Cl)cc1)C[C@H](OC(=O)C1CCC1)C2` [Compound 80, (5S)-3-(4-chlorophenyl)-2-(2-methoxyphenyl)-2,4,5,6-tetrahydrocyclopenta[c]pyrazol-5-yl cyclobutanecarboxylate], the inhibition at 0.33 µM in experiment [1] (0.33 μM) was found to be 89%. For the same compound, in experiment [1], the IC50 was 31 nM. Besides, the results for the inhibition at 0.1 µM at N-type calcium channel (setting [2]) and at N-type calcium channel (setting [3]) were 22% and 7%, respectively. The inhibition at 1 µM turned out to be 43% at N-type calcium channel (setting [4]) and 6% on N-type calcium channel (setting [5]).
Regarding `COc1ccccc1-n1nc2c(c1-c1ccc(Cl)cc1)CC1(C2)O[C@H]2CCC[C@@H]2O1` [Compound 113, (3aS,6aS)-3′-(4-chlorophenyl)-2′-(2-methoxyphenyl)-2′,4,5,6,6′,6a-hexahydro-3aH,4′H-spiro[cyclopenta[d][1,3]dioxole-2,5′-cyclopenta[c]pyrazole]], the inhibition at 0.33 µM in experiment [1] (0.33 μM) came out at 82%. Further, in experiment [1], the IC50 came to 42 nM. Moreover, the inhibition at 0.1 µM at N-type calcium channel (setting [2]) was 3%; on N-type calcium channel (setting [3]) it was -4%.
Consider `COc1ccccc1-n1nc2c(c1-c1ccc(Cl)cc1)CC1(C2)O[C@H]2CCC[C@H]2O1` (stereo partly drawn) [Compound 115, (3aR,6aS)-3′-(4-chlorophenyl)-2′-(2-methoxyphenyl)-2′,4,5,6,6′,6a-hexahydro-3aH,4′H-spiro[cyclopenta[d][1,3]dioxole-2,5′-cyclopenta[c]pyrazole]], for which the “% Inhibition (%) at 0.33 μM” value in experiment [1] (0.33 μM) came out at 85%. Moreover, the IC50 in experiment [1] amounted to 11 nM. Also, the “QPatch at High Frequency % Inhibition” value at N-type calcium channel (0.1 μM, high-frequency stimulation (15th pulse)) is 37%. Moreover, on N-type calcium channel (low frequency, 0.1 μM), the “QPatch at Low Frequency % Inhibition” value is 8%.
Consider `O=C1Cc2nn(-c3ccccc3OC(F)(F)F)c(-c3ccc(Cl)cc3)c2C1` [Compound 27, 3-(4-chlorophenyl)-2-[2-(trifluoromethoxy)phenyl]-2,6-dihydrocyclopenta[c]pyrazol-5(4H)-one], for which the IC50 in experiment [1] was found to be 11 nM. Besides, the results for the inhibition at 0.1 µM on N-type calcium channel (setting [2]) and on N-type calcium channel (setting [3]) were -14% and -16%, respectively.
Regarding `CCOc1ccccc1-n1nc2c(c1-c1ccc(Cl)cc1)CC(N1C(=O)CCC1=O)C2` (stereo not shown) [Compound 38, 1-[3-(4-chlorophenyl)-2-(2-ethoxyphenyl)-2,4,5,6-tetrahydrocyclopenta[c]pyrazol-5-yl]pyrrolidine-2,5-dione], the IC50 in experiment [1] is 7.5 nM. Moreover, the inhibition at 0.1 µM at N-type calcium channel (setting [2]) came out at 53%; on N-type calcium channel (setting [3]), 47%.
For the compound `COc1ccccc1-n1nc2c(c1-c1ccc(Cl)cc1)CC1(C2)O[C@H]2CCCC[C@H]2O1` (stereo partly drawn) [Compound 112, (3aR,7aS)-3′-(4-chlorophenyl)-2′-(2-methoxyphenyl)-2′,3a,4,5,6,6′,7,7a-octahydro-4′H-spiro[1,3-benzodioxole-2,5′-cyclopenta[c]pyrazole]], the inhibition at 0.33 µM in experiment [1] was determined as 90%. The inhibition at 0.1 µM on N-type calcium channel (setting [2]) was 26%; on N-type calcium channel (setting [3]) it was 7%.
For the compound `COc1ccccc1-n1nc2c(c1-c1ccc(Cl)cc1)CC(N1CCC(F)(F)C1)C2` (stereo not shown) [Compound 123, 3-(4-chlorophenyl)-5-(3,3-difluoropyrrolidin-1-yl)-2-(2-methoxyphenyl)-2,4,5,6-tetrahydrocyclopenta[c]pyrazole], in experiment [1] (0.33 μM), the inhibition at 0.33 µM was determined as 91%. Also, the IC50 in experiment [1] is 19 nM. In addition, the inhibition at 0.1 µM at N-type calcium channel (setting [2]) was 26%; at N-type calcium channel (setting [3]), 2%.
For the compound `COc1ccccc1-n1nc2c(c1-c1ccc(Cl)cc1)CC(CCOC(=O)N(C)C)C2` (stereo not shown) [Compound 3, 2-[3-(4-chlorophenyl)-2-(2-methoxyphenyl)-2,4,5,6-tetrahydrocyclopenta[c]pyrazol-5-yl]ethyl dimethylcarbamate], in experiment [1], the IC50 is 26 nM. For the same compound, on N-type calcium channel (setting [4]), the inhibition at 0.25 µM came out at 57%, the inhibition at 1 µM stood at 76% and the inhibition at 5 µM came out at 88%. In addition, at N-type calcium channel (setting [5]), the inhibition at 0.25 µM is 35%, the inhibition at 1 µM was 69% and the inhibition at 5 µM amounted to 93%.
As for `CCc1ncn([C@@H]2Cc3nn(-c4ccccc4OC)c(-c4ccc(C#N)cc4)c3C2)c1CC` [Compound 139, 4-[(5S)-5-(4,5-diethyl-1H-imidazol-1-yl)-2-(2-methoxyphenyl)-2,4,5,6-tetrahydrocyclopenta[c]pyrazol-3-yl]benzonitrile], the inhibition at 0.33 µM in experiment [1] (0.33 μM) was 87%. In addition, the IC50 in experiment [1] worked out at 37 nM. Further, the inhibition at 1 µM at N-type calcium channel (setting [4]) was 66%; on N-type calcium channel (setting [5]), 72%.
Regarding `COc1ccccc1-n1nc2c(c1-c1ccc(N(C)C)cc1)CC1(C2)OCC(C)(C)CO1` [Compound 93, 4-[2-(2-methoxyphenyl)-5′,5′-dimethyl-2,6-dihydro-4H-spiro[cyclopenta[c]pyrazole-5,2′-[1,3]dioxan]-3-yl]-N,N-dimethylaniline], the inhibition at 0.33 µM in experiment [1] (0.33 μM) was 91%. The IC50 in experiment [1] was found to be 12 nM. The inhibition at 0.1 µM stood at 30% at N-type calcium channel (setting [2]) and 12% at N-type calcium channel (setting [3]).
For `CCOc1ccccc1-n1nc2c(c1-c1ccc(Cl)cc1)CC(NS(=O)(=O)N(C)C)C2` (stereo not shown) [Compound 47, N′-[3-(4-chlorophenyl)-2-(2-ethoxyphenyl)-2,4,5,6-tetrahydrocyclopenta[c]pyrazol-5-yl]-N,N-dimethylsulfamide] the same measures were 92%, 4 nM, 19% and 15%.
Turning to `COc1ccccc1-n1nc2c(c1-c1ccc(Cl)cc1)CC(CCOC(=O)N1CCOCC1)C2` (stereo not shown) [Compound 2, 2-[3-(4-chlorophenyl)-2-(2-methoxyphenyl)-2,4,5,6-tetrahydrocyclopenta[c]pyrazol-5-yl]ethyl morpholine-4-carboxylate], in experiment [1], the IC50 was 33 nM. Moreover, on N-type calcium channel (setting [4]), the inhibition at 0.25 µM came out at 58%, the inhibition at 1 µM amounted to 69% and the inhibition at 5 µM came to 97%. For the same compound, at N-type calcium channel (setting [5]), the inhibition at 0.25 µM turned out to be 54%, the inhibition at 1 µM worked out at 76% and the inhibition at 5 µM stood at 90%.
